From patent US20260297065A1, “AROMATIC SUBSTITUENT-CONTAINING (HETERO) ARYL-IMIDAZOLE COMPOUND, AND PREPARATION METHOD THEREFOR AND USE THEREOF” (OPEN SOURCE THERAPEUTICS, priority 2022, published 2026)

Each molecule was assayed against T1, soluble epoxide hydrolase (sEH) (Homo sapiens, UniProt P34913) (assay: PHOME assay activity test, sEH enzyme inhibition (fluorescence)). Conditions: PHOME 5 μM, pH 7.0; 10 min pre-incubation; test compound concentration range 20 nM-0.082 nM.
T1 sequence (P34913 1-555): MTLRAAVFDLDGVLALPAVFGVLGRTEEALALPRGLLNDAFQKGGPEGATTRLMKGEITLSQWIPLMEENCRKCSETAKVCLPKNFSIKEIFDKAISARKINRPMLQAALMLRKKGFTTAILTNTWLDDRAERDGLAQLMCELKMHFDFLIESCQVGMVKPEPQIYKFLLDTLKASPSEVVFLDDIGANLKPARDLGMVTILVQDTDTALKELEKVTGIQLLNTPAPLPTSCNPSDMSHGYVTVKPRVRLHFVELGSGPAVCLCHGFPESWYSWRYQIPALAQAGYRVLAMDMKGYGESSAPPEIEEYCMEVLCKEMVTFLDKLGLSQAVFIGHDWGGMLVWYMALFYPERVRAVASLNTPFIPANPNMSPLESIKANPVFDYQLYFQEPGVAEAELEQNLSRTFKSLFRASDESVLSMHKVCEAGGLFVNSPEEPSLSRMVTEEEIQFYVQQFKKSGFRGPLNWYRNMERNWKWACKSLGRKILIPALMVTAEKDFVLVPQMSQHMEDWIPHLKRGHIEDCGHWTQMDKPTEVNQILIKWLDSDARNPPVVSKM
Type: biochemical
Experimental: This example relates to the relationship between the structure and activity of (hetero)aryl imidazole compounds containing an aromatic substituent. Specifically, the biochemical activity of the (hetero)aryl imidazole compounds containing an aromatic substituent described herein as sEH enzyme inhibitors was evaluated by PHOME assay activity test experiment. The synthesis of the substrates and the test methods required for this test were all based on known literature reports (Analytical Biochemistry 2005, 343, 66-75).
The sEH enzyme activity inhibition experiment was performed in a low binding 96-well plate. The reaction system was 100 μL 25 mM Bis-Tris, pH 7.0, 0.1 mg/mL BSA buffer. The experimental steps of PHOME assay activity test were as follows.
First, a sEH enzyme solution with a final concentration of […] was mixed with compounds of different concentrations (test compound concentration range 20 nM-0.082 nM), and then pre-incubated on a shaker at room temperature for 10 min. The reaction was triggered by adding Phome fluorescent substrate at a final concentration of 5 μM and immediately placed in a Perkin Elmer microplate reader for dynamic monitoring for 1 hour at an excitation wavelength of 330 nm and an emission wavelength of 465 nm, with fluorescence readings at intervals of 1 minute. Graphpad Prism 9.0 software was used to calculate the slope of the fluorescence value increase in each well within 20 minutes, and the slope was used to calibrate the enzyme activity to calculate the inhibition rate of the compound on sEH enzyme activity under different concentration conditions. Finally, Graphpad Prism 9 was used to plot and calculate IC50 values.
The inhibitory activity IC50 values of some compounds against soluble epoxide hydrolase obtained by PHOME assay activity evaluation experiment are shown in Table 4.

SMILES | IC50 [nM]
Nc1ncc(-c2cc3[nH]c(-c4cccc(C(F)(F)F)c4)nc3c(F)c2F)c(C(F)F)n1 [Compound 80, 5-(2-(3-(trifluoromethyl)phen-yl)-4,5-difluoro-1H-benzo[d]imidazol-6-yl)-4-(difluoro-methyl)pyrimidine-2-amine] | 0.65
Nc1ncc(-c2cc3[nH]c(-c4ccc5c(c4)OC(F)(F)O5)nc3c(F)c2F)c(C(F)F)n1 [Compound 89, 5-(2-(2,2-difluorobenzo[d][1,3]dioxol-5-yl)-4,5-difluoro-1H-benzo[d]imidazol-6-yl)-4-(difluoromethyl)pyrimidine-2-amine] | 0.35
Nc1ncc(-c2cc3[nH]c(-c4ccc(OC(F)(F)F)c(F)c4)nc3c(F)c2F)c(C(F)F)n1 [Compound 90, 5-difluoro-1H-benzo[d]5-(2-(4-(trifluoromethoxy)-3-fluoro-phenyl)-4,5-difluoro-1H-benzo [d]imidazol-6-yl)-4-(difluoro-methyl)pyrimidine-2-amine] | 0.48
Fc1c(-c2cnc(NC3COC3)nc2C(F)F)cc2[nH]c(-c3ccc(C(F)(F)F)cc3)nc2c1F [Compound 91, 5-(2-(4-(trifluoromethyl)phen-yl)-4,5-difluoro-1H-benzo[d]imidazol-6-yl)-4-(difluoro-methyl)-N-(oxetan-3-yl)pyr-imidine-2-amine] | 0.61
CN(C)c1nc(N)ncc1-c1cc2[nH]c(-c3ccc(C(F)(F)F)cc3)nc2c(F)c1F [Compound 92, 5-(2-(4-(trifluoromethyl)phen-yl)-4,5-difluoro-1H-benzo[d]imidazol-6-yl)-N4,N4-dimeth-ylpyrimidine-2,4-diamine] | < 0.082
Cc1nc(N2CC(O)C2)ncc1-c1cc2[nH]c(-c3ccc(C(F)(F)F)cc3)nc2c(F)c1F [Compound 93, 1-(4-methyl-5-(2-(4-(trifluoro-methyl)phenyl)-4,5-difluoro-1H-benzo[d]imidazol-6-yl)-pyrimidine-2-yl)azetidin-3-ol] | < 0.082
Nc1ncc(-c2cc3[nH]c(-c4ccc(F)c(OC(F)(F)F)c4)nc3c(F)c2F)c(C(F)F)n1 [Compound 94, 5-(2-(3-(trifluoromethoxy)-4-fluorophenyl)-4,5-difluoro-1H-benzo[d]imidazol-6-yl)-4-(difluoromethyl)pyrimidine-2-amine] | 2.54
N#Cc1nc(N)ncc1-c1cc2[nH]c(-c3ccc(C(F)(F)F)cc3)nc2c(F)c1F [Compound 95, 2-amino-5-(2-(4-(trifluoro-methyl)phenyl)-4,5-difluoro-1H-benzo[d]imidazol-6-yl)-pyrimidine-4-carbonitrile] | < 0.082
Cc1nc(N2CC(C(=O)O)C2)ncc1-c1cc2[nH]c(-c3ccc(C(F)(F)F)cc3)nc2c(F)c1F [Compound 96, 1-(4-methyl-5-(2-(4-(trifluoro-methyl)phenyl)-4,5-difluoro-1H-benzo[d]imidazol-6-yl)-pyrimidine-2-yl)azetidine-3-carboxylic acid] | 0.14
Cc1nc(CN2CCOCC2)ncc1-c1cc2[nH]c(-c3ccc(C(F)(F)F)cc3)nc2c(F)c1F [Compound 97, 4-((4-methyl-5-(2-(4-(trifluoro-methyl)phenyl)-4,5-difluoro-1H-benzo[d]imidazol-6-yl)-pyrimidine-2-yl)methyl)mor-pholine] | 0.092
CC(=O)N1CCN(Cc2ncc(-c3cc4[nH]c(-c5ccc(C(F)(F)F)cc5)nc4c(F)c3F)c(C)n2)CC1 [Compound 98, 1-(4-((4-methyl-5-(2-(4-(trifluoromethyl)phenyl)-4,5-difluoro-1H-benzo[d]imid-azol-6-yl)pyrimidine-2-yl)-methyl)piperazin-1-yl)ethan-1-one] | 0.11
Nc1ncc(-c2cc3[nH]c(-c4ccc(C(F)(F)F)cc4)nc3c(F)c2F)c(C(=O)O)n1 [Compound 99, 2-amino-5-(2-(4-(trifluoro-methyl)phenyl)-4,5-difluoro-1H-benzo[d]imidazol-6-yl)-pyrimidine-4-carboxylic acid] | 41.6
Cc1nc(N)ncc1-c1cc2[nH]c(-c3ccc4oc(=O)n(C)c4c3)nc2c(F)c1F [Compound 100, 3-methyl-5-(6-(4-methyl-2-aminopyrimid-5-yl)-4,5-difluoro-1H-benzo[d]imid-azol-2-yl)benzo[d]oxazol-2(3H)-one] | 10.1
Cc1nc(N)ncc1-c1cc2[nH]c(-c3ccc(C(F)(F)F)cn3)nc2c(F)c1F [Compound 101, 4-methyl-5-(2-(5-(trifluoro-methyl)pyrid-2-yl)-4,5-difluoro-1H-benzo[d]imid-azol-6-yl)pyrimidine-2-amine] | 0.35
Cc1nc(N)ncc1-c1nc2[nH]c(-c3ccc(C(F)(F)F)cc3)nc2cc1F [Compound 102, 4-methyl-5-(2-(4-(trifluoromethyl)phenyl)-6-fluoro-3H-imidazo[4,5-b]pyridin-5-yl)-pyrimidine-2-amine] | 1.45
Cc1cc(N)nnc1-c1cc2[nH]c(-c3ccc(C(F)(F)F)cc3)nc2c(F)c1F [Compound 103, 5-methyl-6-(2-(4-(trifluoro-methyl)phenyl)-4,5-difluoro-1H-benzo[d]imidazol-6-yl)-pyridazin-3-amine] | 0.36
Cc1nc(N2CC(O)C2)ncc1-c1cc2[nH]c(-c3ccc(S(=O)(=O)N(C)C)c(F)c3)nc2c(F)c1F [Compound 104, 4-(6-(4-methyl-2-(3-hydroxy-azetidin-1-yl)pyrimid-5-yl)-4,5-difluoro-1H-benzo[d]imidazol-2-yl)-2-fluoro-N,N-dimethylbenzenesulfonamide] | > 20
Cc1nc(N2CC(C(=O)O)C2)ncc1-c1cc2[nH]c(-c3ccc(S(=O)(=O)N(C)C)c(F)c3)nc2c(F)c1F [Compound 105, 1-(4-methyl-5-(2-(3-fluoro-4-(N,N-dimethylsulfamoyl)phen-yl)-4,5-difluoro-1H-benzo[d]imidazol-6-yl)pyrimidine-2-yl)azetidine-3-carboxylic acid] | > 20

Each molecule was assayed against T1, soluble epoxide hydrolase (sEH) (assay: in vitro biochemical activity test, sEH enzyme inhibition with EET substrate (LC-MS)). Conditions: 90 min pre-incubation at room temperature, 60 min reaction.
Experimental: This example relates to the relationship between the structure and activity of (hetero)aryl imidazole compounds containing an aromatic substituent. Specifically, the biochemical activity of the (hetero)aryl imidazole compounds containing an aromatic substituent described in Example 1 as sEH enzyme inhibitors was evaluated by in vitro activity test experiments.
The experimental procedures for evaluating in vitro biochemical activity were described below.
The substrate used in the evaluation experiment was epoxyeicosatrienoic acid (EET). The solutions used in the evaluation experiments were Bis/Tris HCl 25 mM pH 7.0, Bis/Tris HCl 25 mM pH 7.0 containing 0.1 mg/mL BSA was used as buffer A, and Bis/Tris HCl 25 mM pH 7.0 containing 36.3 mM ZnSO4 was used as buffer B.
The specific steps of the evaluation experiment were as follows. 79 μL of buffer A was added to each well in a black 96-well plate and then 1 μL solution of the aromatic substituent-containing (hetero)aryl imidazole compound was added. Then, 10 μL sEH (1 μM) buffer A solution was added to the wells. After pre-incubation at room temperature for 90 min, 10 μL EET (10 μM) buffer A solution was added to trigger the reaction. After the mixture was allowed to react […] for 60 min, 15 μL buffer B and 180 μL acetonitrile were added to quench the reaction, followed by high-speed centrifugation and filtration for later use.
LC-MS was used to detect the concentration of EET in the samples. The final IC50 was calculated based on three independent experiments using Graphpad Prism software.

SMILES | IC50 [nM]
Nc1ncc(-c2cc3[nH]c(-c4cccc(C(F)(F)F)c4)nc3c(F)c2F)c(C(F)F)n1 [Compound 80, 5-(2-(3-(trifluoromethyl)phen-yl)-4,5-difluoro-1H-benzo[d]imidazol-6-yl)-4-(difluoro-methyl)pyrimidine-2-amine] | 0.45
